According to US20100092443A1, “NOVEL COMBINATIONS OF NITROGENATED HETEROCYCLIC ANTIBACTERIAL COMPOUNDS WITH OTHER ANTIBACTERIAL COMPOUNDS AND THE USE OF SAME AS DRUGS” (priority 2008, published 2010):
In brackets after ≈: the same amount, converted by molar mass. Where two headings read alike, the source gives them in different places.

Experiments:
Type in all cases: cell-based
E. cloacae = experiment: MIC, dilutions in liquid medium, alone and combined with NXL105; details: Enterobacter cloacae
Experimental: (§1) In vitro activity, method of dilutions in liquid medium:
(§2) A series of test 96-well microtiter plates are prepared in which the same quantity of sterile nutritive medium is distributed. […] After 24 h of incubation in a 37° C. oven, growth inhibition is evaluated by transillumination, which makes it possible to determine the minimum inhibitory concentrations (MICS) expressed in μg/ml.

K. pneumoniae = experiment: as above
Experimental: as §1, §2

Pseudomonas aeruginosa = experiment: as above; details: Pseudomonas aeruginosa
Experimental: as §1
A series of test 96-well microtiter plates are prepared in which the same quantity of sterile nutritive medium is distributed. Increasing quantities of the compound to be studied, namely the antibacterial compound alone and the inventive combination with the compound of formula (I) of example 1, are distributed in each plate in the respective proportions 2:1 and 4:1, and then each plate is inoculated with a bacterial strain of Pseudomonas aeruginosa. After 24 h of incubation in a 37° C. oven, growth inhibition is evaluated by transillumination, which makes it possible to determine the minimum inhibitory concentrations (MICS) expressed in μg/ml.

K. oxytoca = experiment: as above; details: Klebsiella oxytoca, read-out: MIC
C. freundii = experiment: as above; details: Citrobacter freundii
E. coli = experiment: microbe, parasite or virus in culture; details: Escherichia coli
Experimental: as §1, §2

Q: What does the source list for C[C@@H](O)[C@H]1C(=O)N2C(C(=O)O)=C(S[C@@H]3CN[C@H](C(=O)N(C)C)C3)[C@H](C)[C@H]12 [Meropenem]?
A: MIC (E. cloacae): 0.125 µg/mL; MIC (E. cloacae; 24 h, E. cloacae 7506, KPC-2 + TEM-1 + KLUC-2, read-out: MIC): 16 µg/mL; MIC (E. cloacae; E. cloacae (no alias), AmpC, read-out: MIC): 0.5 µg/mL; MIC (K. pneumoniae; K. pneumoniae 236, SHV-5 + TEM-10): 0.125 µg/mL; MIC (K. pneumoniae; K. pneumoniae 444, SHV-5 + TEM-2 + PER): 0.125 µg/mL; MIC (K. pneumoniae; K. pneumoniae 1734, FOX-3 + TEM-1): 0.125 µg/mL; MIC (K. pneumoniae; K. pneumoniae 9701, CMY-4 + TEM-1): 0.125 µg/mL; MIC (K. pneumoniae; K. pneumoniae Tunisie clone K1, CTX-M-16 + OXA-1): 0.125 µg/mL; MIC (K. pneumoniae; K. pneumoniae Tunisie clone K4, CTX-M-15 + TEM-1 + OXA-1): 0.125 µg/mL; MIC (K. pneumoniae; Klebsiella pneumoniae): 0.125 µg/mL; MIC (K. pneumoniae; Klebsiella pneumoniae, 24 h, K. pneumoniae 60, SHV-2 + TEM-2 + PER, read-out: MIC): 0.06 µg/mL; MIC (K. pneumoniae; Klebsiella pneumoniae, 24 h, K. pneumoniae 157, SHV-5 + TEM-26, read-out: MIC): ≤ 0.03 µg/mL; MIC (K. pneumoniae; Klebsiella pneumoniae, 24 h, K. pneumoniae 181, SHV-5 + TEM-10, read-out: MIC): 4 µg/mL; MIC (K. pneumoniae; Klebsiella pneumoniae, 24 h, K. pneumoniae 238, SHV-2 + TEM-12 + CTX-M-2, read-out: MIC): ≤ 0.03 µg/mL; MIC (K. pneumoniae; Klebsiella pneumoniae, 24 h, K. pneumoniae 253, SHV-2 + TEM-12 + CTX-M-2, read-out: MIC): 0.06 µg/mL; MIC (K. pneumoniae; Klebsiella pneumoniae, 24 h, K. pneumoniae 427, SHV-1 + TEM-1B + CTX-M-3, read-out: MIC): 0.06 µg/mL; MIC (K. pneumoniae; Klebsiella pneumoniae, 24 h, K. pneumoniae 441, SHV-1 + TEM-2 + PER, read-out: MIC): 0.06 µg/mL; MIC (K. pneumoniae; Klebsiella pneumoniae, 24 h, K. pneumoniae 449, SHV-1 + TEM-2 + PER, read-out: MIC): ≤ 0.03 µg/mL; MIC (K. pneumoniae; Klebsiella pneumoniae, 24 h, K. pneumoniae 465, TEM-1B + CTX-M-2, read-out: MIC): 0.25 µg/mL; MIC (K. pneumoniae; Klebsiella pneumoniae, 24 h, K. pneumoniae KOL, MOX-2 + SHV-5 + TEM-1, read-out: MIC): 0.06 µg/mL; MIC (K. pneumoniae; Klebsiella pneumoniae, 24 h, K. pneumoniae Patient 1BHR, VIM-4 + CTX-M-15 = CMY-4 + TEM-1, read-out: MIC): 16 µg/mL; MIC (K. pneumoniae; Klebsiella pneumoniae, 24 h, K. pneumoniae Patient F, VIM-1 + SHV-5, read-out: MIC): > 32 µg/mL; MIC (K. pneumoniae; Klebsiella pneumoniae, 24 h, K. pneumoniae SLK54, ACC-1 + TEM-1, read-out: MIC): 0.06 µg/mL; MIC (K. pneumoniae; Klebsiella pneumoniae, 24 h, K. pneumoniae TN58467, DHA-1 + SHV-2a + TEM-1, read-out: MIC): 0.25 µg/mL; MIC (K. pneumoniae; Klebsiella pneumoniae, ATCC700603, K. pneumoniae ATCC 700603, SHV-18, read-out: MIC): 0.06 µg/mL; MIC (K. pneumoniae; Klebsiella pneumoniae, K. pneumoniae 26, SHV-5, read-out: MIC): ≤ 0.03 µg/mL; MIC (K. pneumoniae; Klebsiella pneumoniae, K. pneumoniae CL5761, KPC-3, read-out: MIC): > 32 µg/mL; MIC (K. pneumoniae; Klebsiella pneumoniae, K. pneumoniae CL5762, KPC-3, read-out: MIC): > 32 µg/mL; MIC (K. pneumoniae; Klebsiella pneumoniae, K. pneumoniae CL5763, KPC-3, read-out: MIC): > 32 µg/mL; MIC (K. pneumoniae; Klebsiella pneumoniae, K. pneumoniae VA8, KPC-3, read-out: MIC): ≤ 0.03 µg/mL; MIC (K. pneumoniae; Klebsiella pneumoniae, K. pneumoniae VAKP, KPC-2, read-out: MIC): 32 µg/mL; MIC (K. pneumoniae; Klebsiella pneumoniae, K. pneumoniae YC, KPC-2, read-out: MIC): 32 µg/mL; MIC (Pseudomonas aeruginosa; ATCC27853, P. aeruginosa ATCC 27853): 1 µg/mL; MIC (Pseudomonas aeruginosa; P. aeruginosa 391HG2): > 32 µg/mL; MIC (Pseudomonas aeruginosa; P. aeruginosa 391HG21): > 32 µg/mL; MIC (Pseudomonas aeruginosa; P. aeruginosa 391HG38): 32 µg/mL; MIC (Pseudomonas aeruginosa; P. aeruginosa 391HG39): 0.06 µg/mL; MIC (Pseudomonas aeruginosa; P. aeruginosa 391HG58): 32 µg/mL; MIC (Pseudomonas aeruginosa; P. aeruginosa 391HG118): 8 µg/mL; MIC (Pseudomonas aeruginosa; P. aeruginosa 391HG123): 32 µg/mL; MIC (Pseudomonas aeruginosa; P. aeruginosa 391HG158): 32 µg/mL; MIC (Pseudomonas aeruginosa; P. aeruginosa 391HG271): > 32 µg/mL; MIC (Pseudomonas aeruginosa; P. aeruginosa 391HG329): > 32 µg/mL; MIC (Pseudomonas aeruginosa; P. aeruginosa 391K767): 2 µg/mL; MIC (Pseudomonas aeruginosa; P. aeruginosa 391K1455): 4 µg/mL; MIC (Pseudomonas aeruginosa; P. aeruginosa 391K1523): 2 µg/mL; MIC (Pseudomonas aeruginosa; P. aeruginosa 391K1525): 2 µg/mL; MIC (Pseudomonas aeruginosa; P. aeruginosa 391K1536): 2 µg/mL; MIC (Pseudomonas aeruginosa; P. aeruginosa 391K2376): 2 µg/mL; MIC (Pseudomonas aeruginosa; P. aeruginosa 391K2379): 4 µg/mL; MIC (Pseudomonas aeruginosa; P. aeruginosa 391K2415): 2 µg/mL; MIC (Pseudomonas aeruginosa; P. aeruginosa 391KB9): 4 µg/mL; MIC (Pseudomonas aeruginosa; P. aeruginosa 391KB14): 8 µg/mL; MIC (Pseudomonas aeruginosa; P. aeruginosa 391KB21): 8 µg/mL; MIC (Pseudomonas aeruginosa; P. aeruginosa 391KB33): 4 µg/mL; MIC (Pseudomonas aeruginosa; P. aeruginosa 391KB38): 8 µg/mL; MIC (Pseudomonas aeruginosa; P. aeruginosa 391KB62): > 32 µg/mL; MIC (Pseudomonas aeruginosa; P. aeruginosa 391KB68): 1 µg/mL; MIC (Pseudomonas aeruginosa; P. aeruginosa 391KB90): 16 µg/mL; MIC (Pseudomonas aeruginosa; P. aeruginosa 391KB91): 16 µg/mL; MIC (Pseudomonas aeruginosa; P. aeruginosa 391KB99): 16 µg/mL; MIC (Pseudomonas aeruginosa; P. aeruginosa 391KB103): 8 µg/mL; MIC (Pseudomonas aeruginosa; P. aeruginosa 391KB105): 4 µg/mL; MIC (Pseudomonas aeruginosa; P. aeruginosa 391KB106): 4 µg/mL; MIC (Pseudomonas aeruginosa; P. aeruginosa 391KB107): 32 µg/mL; MIC (Pseudomonas aeruginosa; P. aeruginosa 391KB114): 16 µg/mL; MIC (Pseudomonas aeruginosa; P. aeruginosa 391KB127): 2 µg/mL; MIC (Pseudomonas aeruginosa; P. aeruginosa 391KB135): > 32 µg/mL; MIC (Pseudomonas aeruginosa; P. aeruginosa 391KB136): > 32 µg/mL; MIC (Pseudomonas aeruginosa; P. aeruginosa 391KB137): > 32 µg/mL; MIC (Pseudomonas aeruginosa; P. aeruginosa 391KB138): > 32 µg/mL; MIC (Pseudomonas aeruginosa; P. aeruginosa 391KB139): > 32 µg/mL; MIC (Pseudomonas aeruginosa; P. aeruginosa 391KB140): 16 µg/mL; MIC (Pseudomonas aeruginosa; P. aeruginosa 391KB141): > 32 µg/mL; MIC (Pseudomonas aeruginosa; P. aeruginosa 391KB142): > 32 µg/mL; MIC (Pseudomonas aeruginosa; P. aeruginosa 391KB143): > 32 µg/mL; MIC (Pseudomonas aeruginosa; P. aeruginosa 391KB144): > 32 µg/mL; MIC (Pseudomonas aeruginosa; P. aeruginosa 391QBR2): > 32 µg/mL; MIC (Pseudomonas aeruginosa; P. aeruginosa 391QBR3): 32 µg/mL; MIC (Pseudomonas aeruginosa; P. aeruginosa 391QBR4): 16 µg/mL; MIC (Pseudomonas aeruginosa; P. aeruginosa 391QBR5): 32 µg/mL; MIC (Pseudomonas aeruginosa; P. aeruginosa 391QBR7): 32 µg/mL; MIC (Pseudomonas aeruginosa; P. aeruginosa 391QBR8): 16 µg/mL; MIC (Pseudomonas aeruginosa; P. aeruginosa 391QBR9): 16 µg/mL; MIC (Pseudomonas aeruginosa; P. aeruginosa 391QBR10): 4 µg/mL; MIC (Pseudomonas aeruginosa; P. aeruginosa C3719): > 32 µg/mL; MIC (Pseudomonas aeruginosa; P. aeruginosa PA2192): 8 µg/mL; MIC (K. oxytoca; K. oxytoca 1431, TEM-129): 0.06 µg/mL; MIC (K. oxytoca; K. oxytoca 16944, OXY-2, TEM-1): 0.06 µg/mL; MIC (C. freundii): 0.125 µg/mL; MIC (C. freundii; 24 h, C. freundii (no alias), AmpC + TEM-1, read-out: MIC): 0.06 µg/mL; MIC (C. freundii; C. freundii (no alias, table row r121), AmpC, read-out: MIC): 0.25 µg/mL; MIC (C. freundii; C. freundii (no alias, table row r122), AmpC, read-out: MIC): 0.06 µg/mL; MIC (C. freundii; C. freundii (no alias, table row r125), AmpC, read-out: MIC): 0.06 µg/mL; MIC (E. coli; 24 h, E. coli 2138, KPC-2 + TEM-1): 8 µg/mL; MIC (E. coli; 24 h, E. coli (no alias), CTX-M-15 + TEM-1 + OXA-1): ≤ 0.03 µg/mL; MIC (E. coli; 24 h, E. coli IND, VEB-1 + CMY-2): 0.06 µg/mL; MIC (E. coli; 24 h, E. coli TN06, CTX-M-2 + TEM-1): 0.06 µg/mL; MIC (E. coli; 24 h, E. coli TN13, CTX-M-14 + CMY-2 + TEM-1): 0.25 µg/mL; MIC (E. coli; 24 h, E. coli Tunisie clone E4, CTX-M-16 + TEM-1): 0.125 µg/mL; MIC (E. coli; E. coli (no alias), Cephalosporinase, read-out: MIC): 0.06 µg/mL (≈ 0.156 µM); MIC (E. coli; E. coli (no alias), SHV-4): ≤ 0.03 µg/mL; MIC (E. coli; E. coli (no alias), TEM-3): ≤ 0.03 µg/mL
